Assay results reported in patent US11737459B2, “Use of nootkatone to kill sap-sucking insects” (EVOLVA SA, priority 2016, dated 2023).
Values joined by “and” are separate entries in the source; they are usually repeats but may differ in a detail not shown here. Equal values may be shown once. Read-outs that look alike come from different tables or passages of the source.

Experiments:
[1] = system: Aphid (Schizaphis gramium); assay: Laboratory filter-paper bioassay of aphid susceptibility to nootkatone; assay type: in vivo; conditions: 1% v/v nootkatone in ethanol on filter paper, 24 hours post introduction
From the text: This example describes a laboratory bioassay in which groups of aphids were exposed to a nootkatone-containing composition to determine aphid susceptibility to nootkatone.
(§1) One milliliter of a 1% v/v nootkatone in ethanol was applied directly to 9 cm filter paper discs using a micropipette. The filter papers were allowed to dry completely and cut to the appropriate size prior to the start of the test. Pure ethanol was used as a control.
Treated and untreated filter papers were cut into 2.5 inch (6.35 cm) squares and folded into envelopes to serve as containers for the test. Five replicates of 10 aphids were tested per treatment. After the aphids were placed inside, the openings were sealed using clips so that the aphids could not escape.
Aphids were observed after 24 hours post-introduction to the test containers.
(§2) Readings were discontinued if treated mortality reached 100%, or control mortality exceeded 20%.

[2] = system: Red flour beetle (Tribolium castaneum); assay: Laboratory filter-paper bioassay, red flour beetles exposed to nootkatone; assay type: in vivo; set-up: unit not given here; conditions: 1% v/v nootkatone on filter paper
From the text: (§3) This example describes a laboratory bioassay in which groups of house flies and red flour beetles were exposed to a nootkatone-containing composition to determine their susceptibilities to low concentrations of nootkatone.
as §1, with “A negative control group (consisting of untreated replicates—ethanol only)” for “Pure ethanol”, “also assessed for comparative purposes.” for “used as a control.”
(§4) Treated and untreated filter papers were cut so that they covered the bottom of a suitable container for each test species as follows:
Flour beetles—Five replicates of 10 insects were tested. A Petri dish lid 3.54 inches (9 cm) in diameter was inverted and served as the substrate for a 2.75 inch (7 cm) treated filter paper circle. The small Petri dish bottom was inverted over the paper and had its sides treated with Fluon (or similar) to prevent climbing and force exposure with the filter paper. The entire Petri dish was enclosed with two rubber bands.
as §2

[3] = system: House fly (Musca domestica); assay: Laboratory filter-paper bioassay, house flies exposed to nootkatone; assay type: in vivo; set-up: key to Dead, Means: % mortality of insects (treated mortality up to 100%); KD, Means / Affected, Means: unit not given here; conditions: 1% v/v nootkatone on filter paper
From the text: as §3
as §1, with “A negative control group (consisting of untreated replicates—ethanol only)” for “Pure ethanol”, “also assessed for comparative purposes.” for “used as a control.”
as §4
Flies—Five replicates of 10 insects were tested. Inverted 10 ounce (295 mL) clear plastic cups with a 0.5 inch (1.27 cm) hole burned into the center of the bottom, and with the sides coated with Fluon (or similar) were used as the treatment containers. The bottoms of the containers consisted of Petri dish lids 3.54 inches ([…]) in diameter lined with a treated filter paper circle the same diameter. The cup was placed over the filter paper in the lid and both were secured in place using 2 rubber bands. The insects were introduced through the hole in the cup, and a plastic disc was placed over the opening to prevent escapes.
as §2

[4] = system: honey bee (Apis mellifera); conditions: for 48-hour Mortality (%), replicates A-C: individual replicates
Procedure: A negative control group and a solvent control group were maintained concurrently. Three replicate test chambers were maintained in each control and treatment group, with 10 bees in each test chamber. […] The positive control test was conducted concurrently with the definitive test. […] OECD Guidelines for Testing of Chemicals. […] The cumulative mortality observed in the test groups was used to determine the LD50, LOEC, and NOEC.
The primary stock served as a dosing solution for the highest concentration (100 μg a.i./bee). […] Prior to dosing, young adult bees were removed from the frames, distributed into holding containers, and returned to the holding incubator. Approximately 50 bees were impartially placed in each of eight containers in preparation for use in the various treatment and control groups as needed during the dosing procedure.
The test chambers were stainless steel cylinders measuring approximately 9 cm in diameter and 9 cm high, with perforations for ventilation. Each end of the test chamber was covered with a disposable plastic petri dish (approximately 10 cm in diameter), and the bottom petri dish was lined with filter paper. An inverted glass vial containing approximately 10 mL of 50% (w/v) sucrose solution was inserted through the lid of the chamber. The opening of the vial was covered with gauze, which prevented leakage allowing the bees to feed ad libitum throughout the test period. The test chambers were identified by study number, dosage group, and replicate.
Prior to dosing, the bees in each holding container were immobilized with nitrogen. While anesthetized, bees were individually dosed with the appropriate dosing solution. Bees in the test substance, positive control, and solvent control groups were dosed by administering a 4 μL droplet of the appropriate dosing solution to the dorsal side of the thorax of each bee with an adjustable micropipette. Ten bees were impartially placed in each test chamber. Bees in the positive control treatment group were handled and dosed in the same manner. Solvent control bees were dosed with acetone. Negative control bees were not dosed but were handled identically to the treated bees. After dosing, test chambers were distributed into a testing incubator by indiscriminate draw.
The bees were maintained in continuous darkness during the test except during periods of dosing and observations.
The bees were observed and counted periodically to evaluate mortality and signs of toxicity or abnormal behavior.
The negative control group was used for comparison with the treatment groups.

Q: `C=C(C)[C@@H]1CCC2=CC(=O)C[C@@H](C)[C@]2(C)C1` [Nootkatone, nootkatone] was tested. Which “Affected, Means” value [1] did it give?
A: 100.0%

Q: What about the “Dead, Means” value [1] of the same compound?
A: 94.0%

Q: What about the “KD (knockdown), Means” value [1] of the same compound?
A: 6.0%

Q: And the “Dead, Means” value ([1]; listed as nootkatone)?
A: 94%

Q: What about the “KD (knockdown), Means” value ([1]; listed as nootkatone) of the same compound?
A: 6%

Q: What about the “Affected, Means” value ([2]; 30 minutes post introduction) of the same compound?
A: 0.0

Q: And the “Dead, Means” value ([2]; 30 minutes post introduction)?
A: 0.0

Q: What about the “KD, Means” value ([2]; 30 minutes post introduction) of the same compound?
A: 0.0

Q: What about the “Affected, Means” value ([2]; 1 hour post introduction) of the same compound?
A: 0.0

Q: What about the “Dead, Means” value ([2]; 1 hour post introduction) of the same compound?
A: 0.0

Q: What about the “KD, Means” value ([2]; 1 hour post introduction) of the same compound?
A: 0.0

Q: What about the “Affected, Means” value ([2]; 4 hours post introduction) of the same compound?
A: 0.0

Q: And the “Dead, Means” value ([2]; 4 hours post introduction)?
A: 0.0

Q: What about the “KD, Means” value ([2]; 4 hours post introduction) of the same compound?
A: 0.0

Q: What about the “Affected, Means” value ([2]; 24 hours post introduction) of the same compound?
A: 4.2

Q: And the “Dead, Means” value ([2]; 24 hours post introduction)?
A: 0.0

Q: What about the “KD, Means” value ([2]; 24 hours post introduction) of the same compound?
A: 4.2

Q: What about the “Affected, Means” value ([2]; 48 hours post introduction) of the same compound?
A: 6.4

Q: And the “Dead, Means” value ([2]; 48 hours post introduction)?
A: 6.4

Q: What about the “KD, Means” value ([2]; 48 hours post introduction) of the same compound?
A: 0.0

Q: What about the “Affected, Means” value ([2]; 72 hours post introduction) of the same compound?
A: 10.9

Q: And the “Dead, Means” value ([2]; 72 hours post introduction)?
A: 10.9

Q: And the “KD, Means” value ([2]; 72 hours post introduction)?
A: 0.0

Q: What about the “Affected, Means” value ([3]; 30 minutes post introduction) of the same compound?
A: 0.0

Q: What about the “Dead, Means” value ([3]; 30 minutes post introduction) of the same compound?
A: 0.0

Q: And the “KD, Means” value ([3]; 30 minutes post introduction)?
A: 0.0

Q: What about the “Affected, Means” value ([3]; 1 hour post introduction) of the same compound?
A: 0.0

Q: What about the “Dead, Means” value ([3]; 1 hour post introduction) of the same compound?
A: 0.0

Q: What about the “KD, Means” value ([3]; 1 hour post introduction) of the same compound?
A: 0.0

Q: And the “Affected, Means” value ([3]; 4 hours post introduction)?
A: 0.0

Q: What about the “Dead, Means” value ([3]; 4 hours post introduction) of the same compound?
A: 0.0

Q: And the “KD, Means” value ([3]; 4 hours post introduction)?
A: 0.0

Q: And the “Affected, Means” value ([3]; 24 hours post introduction)?
A: 14.0

Q: And the “Dead, Means” value ([3]; 24 hours post introduction)?
A: 2.0

Q: And the “KD, Means” value ([3]; 24 hours post introduction)?
A: 12.0

Q: And the “Affected, Means” value ([3]; 48 hours post introduction)?
A: 28.0

Q: What about the “Dead, Means” value ([3]; 48 hours post introduction) of the same compound?
A: 28.0

Q: And the “KD, Means” value ([3]; 48 hours post introduction)?
A: 0.0

Q: And the “Affected, Means” value ([3]; 72 hours post introduction)?
A: 44.0

Q: And the “Dead, Means” value ([3]; 72 hours post introduction)?
A: 42.0

Q: And the “KD, Means” value ([3]; 72 hours post introduction)?
A: 2.0

Q: And the “48-hour Mortality Mean (%)” value ([4]; 6.25 μg a.i./bee topical)?
A: 10%

Q: What about the “48-hour Mortality (%), replicates A-C” value ([4]; 6.25 μg a.i./bee topical) of the same compound?
A: 0% and 10% and 20%

Q: And the “48-hour Mortality Mean (%)” value ([4]; 12.5 μg a.i./bee topical)?
A: 10%

Q: What about the “48-hour Mortality (%), replicates A-C” value ([4]; 12.5 μg a.i./bee topical) of the same compound?
A: 0% and 10% and 20%

Q: What about the “48-hour Mortality Mean (%)” value ([4]; 25 μg a.i./bee topical) of the same compound?
A: 0%

Q: What about the “48-hour Mortality (%), replicates A-C” value ([4]; 25 μg a.i./bee topical) of the same compound?
A: 0%

Q: And the “48-hour Mortality Mean (%)” value ([4]; 50 μg a.i./bee topical)?
A: 3.3%

Q: What about the “48-hour Mortality (%), replicates A-C” value ([4]; 50 μg a.i./bee topical) of the same compound?
A: 0% (2×) and 10%

Q: And the “48-hour Mortality Mean (%)” value ([4]; 100 μg a.i./bee topical)?
A: 13.3%

Q: And the “48-hour Mortality (%), replicates A-C” value ([4]; 100 μg a.i./bee topical)?
A: 10% (2×) and 20%

Q: What about the “NOEC (No Observable Effect Concentration)” value ([4]; 48-hour mortality, highest concentration tested) of the same compound?
A: 100 μg a.i./bee

Q: What about the “Mortality in the treatment groups at the end of the test” value ([4]; all doses 6.25 to 100 μg a.i./bee, 48 hours, listed as Nootkatone 98%) of the same compound?
A: less than 50%
